From patent US20090234122A1, “CYANINE DYE AND OPTICAL RECORDING MEDIUM” (priority 2005, published 2009)

Experiments:
Assay type in all cases: physicochemical
[1] = Lightfastness of cyanine dye thin membranes under xenon lamp irradiation; conditions: thin membrane on glass, 180 W/m^2, 5.5 hours
Protocol: The solution was in conventional manner dropped to homogeneity over the surface of either side of a polished glass substrate, 5 cm×5 cm, followed by rotating the glass substrate at a rate of 1,000 rpm/min for one minute to homogeneously apply the solution over the substrate and then drying the substrate by blowing hot air or cold air in this order to form a thin membrane of any one of the cyanine dyes of the present invention.
The cyanine dyes were measured for transmittance (T0) at the wavelengths of their absorption maxima (about 450 nm), while a 7.5 W xenon lamp was fixed apart from the glass substrate at a prescribed intervals and irradiated therewith (irradiated energy of 180 W/m^2 when measured on the surface of the substrate) for 5.5 hours while blowing cold air to the substrate. Thereafter, the substrates were immediately measured for transmittance (T) at the wavelengths of absorption maxima of the cyanine dyes and the residual percentages (%) thereof were calculated by assigning the obtained transmittances T and T0 the equation 1. In parallel, similarly as in the above, thin membranes, as controls 1 to 4, formed with any one of the compounds represented by Chemical Formulae 33, 37, 40 and 41; thin membranes, as controls 5 to 8, formed with any one of the compounds represented by Chemical Formulae 33, 37, 40 and 41 in combination with the azo metal complex presented by Chemical Formula 34 as a light resistant improver; and thin membranes, as controls 9 to 10, formed with any one of the compounds represented by Chemical Formulae 42 and 43, and these thin membranes were similarly treated as in the above, and measured for transmittances T and T0 at wavelengths of their absorption maxima for use as controls.

[2] = Decomposition point on DSC analysis; conditions: onset temperature of exothermic peak induced by decomposition
Excerpt: The decomposition points of organic dye compounds such as cyanine dyes can be determined on, for example, commonly used differential scanning calorimetric analysis (abbreviated as “DSC”, hereinafter).
The melting point means a peak top temperature of endothermic peak during temperature increase on DSC analysis, while the decomposition point means an onset temperature of exothermic peak induced by decomposition during temperature increase on DSC analysis. These are applicable to the following measurements.

[3] = Solubility in organic solvents at 20° C.; conditions: N,N-dimethylformamide, methanol, TFP, methylethylketone, acetonitrile, chloroform
[4] = in combination with lightfastness improver Chemical Formula 34 (azo metal complex)
[5] = transmittance at absorption maximum (about 450 nm), lightfastness improver: Non

**Q.** What does the source list for `CN1C(=CC2=[N+](C)c3ccccc3C23CCCCC3)C2(CCCCC2)c2ccccc21` [Chemical Formula 40]?
**A.** Residual percentage (%) of dye [1, 4]: 91.5%; Residual percentage (%) of dye [1, 5]: 35.6%; decomposition point [2]: around 227 °C

**Q.** Which results are given for `CN1C(=CC2=[N+](C)c3ccccc3C23CCCCC3)C(C)(C)c2ccccc21` [Chemical Formula 41]?
**A.** Residual percentage (%) of dye [1, 4]: 93.8%; Residual percentage (%) of dye [1, 5]: 33.8%; decomposition point [2]: around 240 °C

**Q.** Which “Residual percentage (%) of dye” value [1, 4] does the source give for `CN1C(=CC2=[N+](C)c3ccccc3C2(C)Cc2ccccc2)C(C)(C)c2ccccc21` (stereo not shown) [Chemical Formula 37] here?
**A.** Its value is 90.3%.

**Q.** And the “Residual percentage (%) of dye” value [1, 5]?
**A.** Its value is 31.2%.

**Q.** What about the decomposition point [2] of the same compound?
**A.** The decomposition point was “around 238 °C”.

**Q.** For `CCN1C(=CC2=[N+](CC)c3ccccc3C2(C)Cc2ccccc2)C(C)(Cc2ccccc2)c2ccccc21` (stereo not shown) [Chemical Formula 33], which “Residual percentage (%) of dye” value [1, 4] is on record?
**A.** The value was 89.9%.

**Q.** What about the “Residual percentage (%) of dye” value [1, 5] of the same compound?
**A.** Its value is 29.4%.

**Q.** And the decomposition point [2]?
**A.** The decomposition point was “around 212 °C”.

**Q.** With `CN1C(=CC2=[N+](C)c3ccccc3C2(C)Cc2ccccc2)C(C)(C)c2ccccc21` (stereo not shown) [Chemical Formula 20] as the compound, how does the “solubility in organic solvents” value [3] read?
**A.** Its value is “satisfactory solubilities with no actual hindrance”.

**Q.** And the “Residual percentage (%) of dye” value [1, 5]?
**A.** Its value is 99.1%.

**Q.** And the decomposition point [2]?
**A.** The decomposition point was ~273 °C.

**Q.** Which “Residual percentage (%) of dye” value [1, 5] does the source give for `CN1C(=CC2=[N+](C)c3ccccc3C2(C)C)C(C)(C)c2ccccc21` [Chemical Formula 42] here?
**A.** Its value is 15.3%.
